# Read-outs that look alike come from different tables or passages of the source.
# Tested on: HBV viral load production from HepAD38 cells
# Test: Viral production from HepAD38 cells: viral load in supernatant by qPCR of the HBV core sequence
# Format: cell-based
# Conditions: 5 days incubation, qPCR of supernatant HBV DNA vs DMSO control, read-out: viral load lowering EC50 (Activity)
# Procedure: Assay Measuring Activity of Test Compounds on Viral Production from HepAD38 Cells
# HepAD38 cells grown in a T-150 flask (Corning, cat #: 430825) with Growth Medium (DMEM/F12 […] (Hyclone, cat #: SH30023.02), 1× Pen/Strep (Invitrogen, cat #: 15140-122), 10% FBS (Tissue Culture Biologics, cat #: 101), […] G418 (Alfa Aesar, cat #: J62671), 1 μg/mL Tetracycline (Teknova, cat #: T3320)) were detached with 0.25% trypsin-EDTA (Invitrogen, cat #: 25200-056). Tetracycline-free treatment medium (15 mL DMEM/F12 (1:1) 1× Pen/step, with 2% FBS, Tet-system approved (Clontech, cat #: 631106) were then added to mix, transferred into a 50 ml conical tube (Falcon, cat #: 21008-918,) and spun at 1300 rpm for 5 min. Pelleted cells were then re-suspended/washed with 50 mL of 1×DPBS (Invitrogen, cat #: 14190-136) 2 times and 50 mL treatment medium twice. HepAD38 cells were then re-suspended with 10 mL of treatment medium, syringed and counted. Wells of 96-well clear bottom TC plate (Corning, cat #: 3904,) were seeded at 50,000 cells/well in 180 μL of treatment medium, and 20 μL of either 10% DMSO (Sigma, cat #: D4540) as controls or a 10× solution of test compounds in 10% DMSO in treatment media was added for a final compound concentration starting at 10 μM, and plates were incubated in 5% CO2 incubator at 37° C. for 5 days.
# Subsequently viral load production was assayed by quantitative PCR (qPCR) of the HBV core sequence. PCR reaction mixture containing forward primers HBV-f 5′-CTGTGCCTTGGGTGGCTIT-3′ (IDT DNA), Reverse primers HBV-r 5′-[…]-3′ (IDT DNA), Fluorescent TaqMan™ Probes HBV-probe 5′-FAM/AGCTCCAAA/ZEN/[…]/3IABkFQ-3′ (IDT DNA), 10 μL/well of PerfeCTa® qPCR ToughMix® (Quanta Biosciences, Cat #: 95114-05K), and 6 μL/well of DEPC water (Alfa Aesar, cat #: J62087) was prepared. Four μL of supernatant was added to 16 μL of the reaction mixture in a qPCR plate (Applied Biosytems, Cat #: 4309849), sealed with a film (Applied Biosystems, Cat #: 4311971), centrifuged for a few seconds, and subsequently run on an Applied Biosystems VIIA7. The PCR mixture was incubated at 45° C. for 5 min, then 95° C. for 10 min, followed by 40 cycles of 10 seconds at 95° C. and 20 seconds at 60° C. Viral load was quantified against known HBV DNA standards by using ViiA™ 7 Software. Viral load in the supernatant from wells with treated cells were compared against viral load in supernatant from DMSO control wells (≥3 per plate). Cell viability assay was performed with CellTiter-Glo Luminescent Cell Viability Assay (Promega, cat #: G7573) with modification. Mixed appropriate amount of CellTiter-Glo (CTG) 1×DPBS in a 1:1 ratio, added 100 uL of the mixture to each well followed completely removal of all supernatant in each well without touching cell surface. Incubated the plate at room temperature for 10 min on an orbital shaker, and then read the plate with a plate reader (TECAN M1000 or Envision). EC50 or CC50 values were calculated through curve-fitting of the four-parameter nonlinear-logistic-regression model (GraphPad Prism or Dotmatics). CC50 values were all >10 μM.
# [1] = Hepatitis B virus, HePAD38, 120 h
SMILES,EC50 [nM],EC50 [1] [nM]
"CN1C(C(=O)Nc2ccc(F)c(Cl)c2)CC(C(=O)NCc2nc(C(F)(F)F)cs2)NS1(=O)=O (single isomer, unassigned) [1202-ISOMER-B, N3-(3-chloro-4-fluoro-phenyl)-2-methyl-1,1-dioxo-N5-[[4-(trifluoromethyl)thiazol-2-yl]methyl]-1,2,6-thiadiazinane-3,5-dicarboxamide]",< 50,
"CN1C(C(=O)Nc2ccc(F)c(Cl)c2)CC(C(=O)NCc2cnc(-c3ccc(O)cc3)s2)NS1(=O)=O (single isomer, unassigned) [Compound 924-ISOMER-B, N3-(3-chloro-4-fluoro-phenyl)-N5-[[2-(4-hydroxyphenyl)thiazol-5-yl]methyl]-2-methyl-1,1-dioxo-1,2,6-thiadiazinane-3,5-dicarboxamide]",,< 50
CN1C(C(=O)Nc2ccc(F)c(Cl)c2)CC(C(=O)NC2CCN(c3ccccn3)CC2)NS1(=O)=O (stereo not shown) [Compound 769],,< 50
Cc1cn(-c2ccccc2)nc1CNC(=O)C1CC(C(=O)Nc2ccc(F)c(Cl)c2)N(C)S(=O)(=O)N1 (stereo not shown) [Compound 1057],,< 50
Cc1nc(CNC(=O)C2CC(C(=O)Nc3ccc(F)c(Cl)c3)N(C)S(=O)(=O)N2)sc1-c1ccccc1Cl (stereo not shown) [Compound 1071],,< 50
CN1C(C(=O)Nc2ccc(F)c(Cl)c2)CC(C(=O)NCc2ccccc2F)NS1(=O)=O (stereo not shown) [Compound 819],,< 50
"CN1C(C(=O)Nc2ccc(F)c(Cl)c2)CC(C(=O)NCc2cnc(-c3ccc(C#N)cc3F)s2)NS1(=O)=O (single isomer, unassigned) [Compound 920-ISOMER-B, N3-(3-chloro-4-fluoro-phenyl)-N5-[[2-(4-cyano-2-fluoro-phenyl)thiazol-5-yl]methyl]-2-methyl-1,1-dioxo-1,2,6-thiadiazinane-3,5-dicarboxamide]",< 50,
Cc1cc(CNC(=O)C2CC(C(=O)Nc3ccc(F)c(Cl)c3)N(C)S(=O)(=O)N2)on1 (stereo not shown) [Compound 489],,50 to 100
"CN1C(C(=O)Nc2ccc(F)c(Cl)c2)CC(C(=O)NCc2cnc(-c3cccnc3)s2)NS1(=O)=O (single isomer, unassigned) [Compound 911-ISOMER-A, N3-(3-chloro-4-fluoro-phenyl)-2-methyl-1,1-dioxo-N5-[[2-(3-pyridyl)thiazol-5-yl]methyl]-1,2,6-thiadiazinane-3,5-dicarboxamide]",,100 to 10000
CN1C(C(=O)Nc2ccc(F)c(Cl)c2)CC(C(=O)NC(c2ccccc2)c2cnc(-c3ccccc3Cl)s2)NS1(=O)=O (stereo not shown) [Compound 1068],,50 to 100
COc1ccc(CNC(=O)C2CC(C(=O)Nc3ccc(F)c(C#N)c3)N(C)S(=O)(=O)N2)cc1 (stereo not shown) [Compound 832],,50 to 100
CN1C(C(=O)Nc2ccc(F)c(Cl)c2)CC(C(=O)NCc2cnc(-c3ccc(F)cc3)s2)NS1(=O)=O (stereo not shown) [Compound 916],,< 50
Cc1cn(-c2ccccc2)nc1CNC(=O)C1CC(C(=O)Nc2ccnc(Cl)c2)N(C)S(=O)(=O)N1 (stereo not shown) [Compound 1135],,< 50
"COc1cccc(CNC(=O)C2CC(C(=O)Nc3ccc(F)c(Cl)c3)N(C)S(=O)(=O)N2)c1 (single isomer, unassigned) [Compound 721-ISOMER-B, N3-(3-chloro-4-fluoro-phenyl)-N5-[(3-methoxyphenyl)methyl]-2-methyl-1,1-dioxo-1,2,6-thiadiazinane-3,5-dicarboxamide]",100 to 10000,
CN1C(C(=O)Nc2ccc(F)c(Cl)c2)CC(C(=O)NCc2ccccc2N2CCOCC2)NS1(=O)=O (stereo not shown) [Compound 907],,50 to 100
COc1ccccc1-c1ncc(CNC(=O)C2CC(C(=O)Nc3ccc(F)c(Cl)c3)N(C)S(=O)(=O)N2)s1 (stereo not shown) [Compound 987],,< 50
CN1C(C(=O)Nc2ccc(F)c(Cl)c2)CC(C(=O)NCc2cnc(-c3ccc(SCCCO)cc3)s2)NS1(=O)=O (stereo not shown) [Compound 923],,50 to 100

SMILES,EC50 [nM],EC50 [1] [nM]
CN1C(C(=O)Nc2ccc(F)c(Cl)c2)CC(C(=O)NCc2ccccn2)NS1(=O)=O (stereo not shown) [Compound 739],,50 to 100
CN1C(C(=O)Nc2ccc(F)c(C#N)c2)CC(C(=O)NC2CCN(C(=O)OC(C)(C)C)CC2)NS1(=O)=O (stereo not shown) [Compound 868],,< 50
CN1C(C(=O)Nc2ccc(F)c(Cl)c2)CC(C(=O)NC2CCN(Cc3cccnc3Br)CC2)NS1(=O)=O (stereo not shown) [Compound 1033],,100 to 10000
CN1C(C(=O)Nc2ccc(F)c(Cl)c2)CC(C(=O)NCc2ccccc2N2CCCCC2)NS1(=O)=O (stereo not shown) [Compound 906],,100 to 10000
CN1C(C(=O)Nc2ccc(F)c(Cl)c2)CC(C(=O)NC2CCN(c3ccnc(Cl)n3)CC2)NS1(=O)=O (stereo not shown) [Compound 1054],,< 50
"CN1C(C(=O)Nc2ccc(F)c(Cl)c2)CC(C(=O)NCc2cnc(Cl)s2)NS1(=O)=O (single isomer, unassigned) [1199-ISOMER-A, N3-(3-chloro-4-fluoro-phenyl)-N5-[(2-chlorothiazol-5-yl)methyl]-2-methyl-1,1-dioxo-1,2,6-thiadiazinane-3,5-dicarboxamide]",,< 50
CN1C(C(=O)Nc2ccc(F)c(Cl)c2)CC(C(=O)N[C@H]2CCCc3ccccc32)NS1(=O)=O (stereo partly shown) [Compound 731],,100 to 10000
CC(NC(=O)C1CC(C(=O)Nc2ccc(F)c(Cl)c2)N(C)S(=O)(=O)N1)c1csc(Cl)n1 (stereo not shown) [Compound 1007],,< 50
"CN1C(C(=O)Nc2ccc(F)c(Cl)c2)CC(C(=O)NCc2cn(-c3ccccc3)cn2)NS1(=O)=O (single isomer, unassigned) [1145-ISOMER-A, N3-(3-chloro-4-fluoro-phenyl)-2-methyl-1,1-dioxo-N5-[(1-phenylimidazol-4-yl)methyl]-1,2,6-thiadiazinane-3,5-dicarboxamide]",,< 50
Cc1nc(-c2ccc(OCCN3CCCCC3)cc2)sc1CNC(=O)C1CC(C(=O)Nc2ccc(F)c(Cl)c2)N(C)S(=O)(=O)N1 (stereo not shown) [Compound 1087],,< 50
CN1C(C(=O)Nc2ccc(F)c(Cl)c2)CC(C(=O)NCc2cnc(-c3ccccc3)s2)NS1(=O)=O (stereo not shown) [Compound 691],,< 50
CN1C(C(=O)Nc2ccc(F)c(Cl)c2)CC(C(=O)NC2CCN(c3ccnc(-c4ccccc4)c3)CC2)NS1(=O)=O (stereo not shown) [Compound 1050],,< 50
"CN1C(C(=O)Nc2ccc(F)c(Cl)c2)CC(C(=O)NC2CCN(c3ccccn3)CC2)NS1(=O)=O (single isomer, unassigned) [Compound 769-ISOMER-B, N3-(3-chloro-4-fluoro-phenyl)-2-methyl-1,1-dioxo-N5-[1-(2-pyridyl)-4-piperidyl]-1,2,6-thiadiazinane-3,5-dicarboxamide]",100 to 10000,
CN1C(C(=O)Nc2ccc(F)c(Cl)c2)CC(C(=O)NCc2ccccc2Cl)NS1(=O)=O (stereo not shown) [Compound 820],,< 50
"Cc1nc(-c2ccccc2Cl)sc1CNC(=O)C1CC(C(=O)Nc2ccc(F)c(Cl)c2)N(C)S(=O)(=O)N1 (single isomer, unassigned) [1015-ISOMER-A, N3-(3-Chloro-4-fluoro-phenyl)-N5-[[2-(2-chlorophenyl)-4-methyl-thiazol-5-yl]methyl]-2-methyl-1,1-dioxo-1,2,6-thiadiazinane-3,5-dicarboxamide]",,< 50
CN1C(C(=O)Nc2ccc(F)c(Cl)c2)CC(C(=O)NCc2ccc(Cl)cc2)NS1(=O)=O (stereo not shown) [Compound 729],,< 50
"CN1C(C(=O)Nc2ccc(F)c(Cl)c2)CC(C(=O)NCc2cnc(-c3cccc(Cl)c3)s2)NS1(=O)=O (single isomer, unassigned) [Compound 913-ISOMER-A, N3-(3-chloro-4-fluoro-phenyl)-N5-[[2-(3-chlorophenyl)thiazol-5-yl]methyl]-2-methyl-1,1-dioxo-1,2,6-thiadiazinane-3,5-dicarboxamide]",,100 to 10000
